One experiment has as its system Cavα1. The experiment in a line: Western blot of Cavα1 protein level in 293T cells co-transfected with Cavα1 and Cavβ2 variants. Type of experiment: cell-based. As for the experimental part:
FIG. 5. Akt phosphorylation of Cavβ2 protects Cavα1 from protein degradation. (A-C) YFP-Cavα1 co-transfected 293T cells with the indicated mutant variant of Cavβ2. Cells were serum-starved overnight and treated with (A) […] or (B-C) 5 μM Akt inhibitor as indicated. The expression of YFP-Cavα1 in lysates was monitored by Western blot analysis with anti-YFP antibody, and normalized based on transfection efficiency (Cav(32) and protein amount (Tubulin) (n=3). (D) Cavα1 and Cavβ2 co-transfected 293T cells were treated with siAkt expressing vector as indicated. 3 days post transfection, cell lysate was tested by Western blot analysis. Protein loading was normalized to GAPDH levels. Representative experiments are shown (n=3).
FIG. 12. Cavβ2 interacts with Akt isoforms and Akt affects Cavα1 protein stability. (A) Immunoprecipitated Akt isoforms from WT cardiac extracts from mice treated or not with insulin (1 mU/g) assayed for Cavβ2. Input protein in each co-immunoprecipitation is shown. (B) Cavα1, Cavα1-ΔP, or Cavα1-ΔH co-transfected 293T cells with either Cavβ2 or Cavβ2-SE were infected with indicated active (AdAkt) or dominant negative (AdAktDN) Akt expressing adenoviral vectors. Cells were serum-starved overnight as indicated. The expression of Cavα1 and phosphorylation of GSK in lysates was monitored by Western blot analysis. (C) Cavα1, Cavα1-ΔP, or Cavα1 co-transfected 293T cells with either Cavβ2 or Cavβ2-SE were treated with siAkt expressing vector as indicated. 3 days post transfection, cells were lysated for protein extraction. Protein loading was normalized to GAPDH levels. Representative experiments are shown (n=3).
To directly assess whether Akt phosphorylation of Cavβ2 protects Cavα1 from protein degradation, we constructed a mutant of Cavβ2 in which the Serine 625, contained in the putative Akt—consensus site (R—X—X—R—S/T), was replaced by Glutamate (Cavβ2-SE) to mimic phosphorylation. […]
Proteins expression was evaluated in total lysates or cell fractions by Western blot analysis according to standard procedures. […]
For orientation: Immunoblotting shows a protein as a band on a membrane.

A further experiment relates to Cavα1 currents. The experiment in a line: Whole-cell patch clamp Ca2+ current (ICa,L) in cotransfected tsA-201 cells with or without serum. Particulars: cotransfection with Cavα1; 36 h. Type of experiment: cell-based. As for the experimental part:
FIG. 6. Akt phosphorylation of Cavβ2 preserves Cavα1 currents. Ca^2+ currents recorded in cotransfected tsA-201 cells with YFP-Cavα1 and either Cavβ2-WT, Cavβ2-SE, or Cavβ2-SA mutant, cultivated for 36 h in the presence or absence of fetal bovine serum (10%). Currents were recorded 1-2 minutes after the whole-cell configuration was achieved (i.e. after stabilization of the current) and were elicited by a 0 mV depolarization of 200 ms duration applied from a holding potential of −80 mV. Currents are normalized to cell capacitance (Current density, pA/pF). Representative current traces are shown. n>35 at each condition, (*P<0.05 compared to YFP-Cavα1, ANOVA).
FIG. 7. […] (C) Wild-type Cavα1 subunit (alone or cotransfected with Cavβ2SE) and its in-frame ΔPEST mutants (Cavα1-ΔP and Cavα1-ΔH) half-lives were determined in COST cells. After overnight starvation, transfected cells were pulse-chased and analyzed along a time course (*P<0.001 compared to Cavα1, ANOVA; n=3). […] (F) Ca^2+ currents recorded in tsA-201 cells cotransfected with Cavβ2-WT and either Cavα1-WT or Cavα1-ΔH and cultivated for 36 h in the presence or absence of fetal bovine serum (10%). […]
Macroscopic Ice, was recorded at room temperature (˜22° C.) using the whole-cell patch clamp technique in native cells as previously described (Aimond et al., 2005; Maier et al., 2003). […]
(In general: The patch-clamp technique gives a direct electrical read-out from membranes.)

For the next experiment, the system named is Cavβ2. The experiment in a line: Cavβ2 phosphorylation in hearts of insulin-treated mice (PAS antibody). To be noted: 1 mU/g insulin, 20 min post treatment. Type of experiment: in vivo, mouse. As for the experimental part:
FIG. 4. Akt interacts with and phosphorylates Cavβ2. (A) Coimmunoprecipitation assay of Akt and Cavβ2. Ventricular homogenates from WT and HA-E40K-Akt transgenic mice (Tg Akt) immunoprecipitated with antibodies against HA and immunoblotted for Cavβ2 as well as HA as a control. (B) Examination of Cavβ2 phosphorylation by Akt. In vitro kinase assays were performed with immunoprecipitated Cavβ2 incubated with recombinant active Akt and ^32P labeled ATP (left) or immunoprecipitated Cavβ2 from WT and KO cardiac extracts from mice treated or not with insulin (1 mU/g) using PAS (Phospho-Akt Substrate) antibody (right). (C) Back-phosphorylation assay of Cavβ2 from WT and KO hearts. Immunoprecipitated Cavβ2 from solubilized membranes was in vitro back-phosphorylated using recombinant active Akt and [γ^32]ATP. Precipitate amounts were assayed for ^32PCavβ2 and total Cavβ2. Representative experiments are shown (n=4).
To determine whether Cavβ2 can be phosphorylated by Akt, Cavβ2-immunoprecipitates from cardiac homogenates were incubated with recombinant active Akt and [γ-^32]ATP. A band corresponding to phosphorylated Cavβ2 was detected only in the presence of the kinase (FIG. 4B, left panel). To determine whether the Cavβ2 subunit was phosphorylated by Akt in vivo, we treated overnight-starved mice with 1 mU/g insulin to induce activation of Akt (Bayascas et al., 2008). […]

As for “Cavβ2-SE: mutant of Cavβ2 in which Serine 625 in the Akt consensus site was replaced by Glutamate to mimic phosphorylation”, the “Cavα1 protein level under Akt inhibitor” value in the experiment with Cavα1 (5 μM Akt inhibitor) was “counteracted the downregulation of Cavα1”. The “Cavα1 protein levels compared to cotransfection with Cavβ2-WT” value with Cavα1 (293T cells cotransfected with Cavα1) is “increased”. For the same substance, the “ICa,L in serum-free medium compared to serum-containing medium” value in the experiment with Cavα1 currents is listed as “completely counteracted this reduction”.

For the substance insulin [reference compound], the “Cavα1 expression on insulin treatment” value in the experiment with Cavα1 (Cavβ2-WT cotransfected cells) is “increased”. In addition, in the experiment on Cavβ2, the “Phosphorylation of Cavβ2 in heart” value is listed as “insulin-stimulated phosphorylation of Cavβ2 in WT but not in KO hearts”.

The values are drawn from patent US20120070451A1, “METHODS AND COMPOSITIONS FOR MODULATING CARDIAC CONTRACTILITY” (Consiglio Nazionale Delle Ricerche, priority 2009, published 2012).
